Assay results published in patent US4056520A (Research Corporation, priority 1975, dated 1977).

Tested on: pituitary dwarf
Experiment: Metabolic studies in a pituitary dwarf (human growth hormone-like activity)
Assay type: in vivo
Details: same pituitary dwarf
Experimental: There was also observed an increase in urinary calcium. […] This fraction in accordance with this invention evidencing clinical activity was administered by injection into the pituitary dwarf.
In the treatment of the pituitary dwarf mentioned hereinabove with the active A-II fraction, the treatment involved metabolic studies. The pituitary dwarf received 5 milligrams of the A-II fraction dissolved in water twice a day intramuscularly for five days. The active A-II fraction could just as well been given intravenously although one would predict that the effects would be more prolonged with intramuscular injection. It would appear unlikely that the A-II fraction, being a peptide, could efficiently be given orally since it would be digested in the gastrointestinal tract.

human growth hormone: human growth hormone given to the same pituitary dwarf for comparison
responses compared with the A-II fraction: qualitatively the same although the human growth hormone was more effective
